Read-outs that look alike come from different tables or passages of the source.
Tests used:
[1] = Cytotoxicity assay (MTT), J774A.1 cell line; format: cell-based; conditions: mouse
Procedure: (§1) Adherent BALB/c mouse macrophage cell line J774A.1 (ATCC® TIB 67™) and suspension human acute monocytic leukemic cell line THP-1 (ATCC® TIB-202™) were purchased from DSMZ, Germany were cultured and maintained in DMEM medium (Gibco) and RPMI 1640 (Sigma), respectively, supplemented with 10% FBS, 1% penicillin-streptomycin (Sigma) and L-glutamine 200 mM (Sigma), at 37 °C, 5% CO2.
(§2) Cell lines J774A.1 and THP-1 were used to estimate CC50 of the peroxides. Cells were plated in 96-well flat bottom culture plates (VWR) at 5 × 10^5 cells/mL. The monocytic cell line THP-1 was differentiated in RPMI medium with phorbol myristate acetate (PMA) (25 ng/mL; Sigma) for 24 h, followed by a washing step with RPMI medium. Six serial concentrations of the compounds (Table 3) were added in four replicates and the plates were incubated at 37 °C ± 1 °C, 5% CO2 for 48 h. An untreated control (cells in DMEM or RPMI medium plus 0.5% DMSO as vehicle) and blank (medium alone) were plated out in quadruplicate. After the incubation period, 20 µL/well of MTT [3-(4,5-dimethylthiazol-2-yl)-2,5-diphenyltetrazolium bromide] was added to a final concentration of 5 µg/mL in 1× phosphate-buffered saline (PBS, Merck), with an additional 4 h incubation at 36 °C, as previously described. The formazan salts were resuspended in 2-propanol (Merck) and the cell viability was determined by measuring absorbance with a Synergy ™HTX Multi Mode Microplate Reader at 595 nm (Dynex Technologies). The CC50 values were calculated fitting the data as a non-linear regression with variable slope using a dose-response inhibitory model, in the GraphPad Prism V 8.0 program. Each compound was tested in three independent assays.

[2] = Cytotoxicity assay (MTT), PMA-differentiated THP-1 cell line; format: cell-based; conditions: human
Procedure: as §1, §2

[3] = tested on: L. infantum IMT151 promastigotes; test: Promastigotes susceptibility assay (MTT), L. infantum; format: cell-based; conditions: Leishmania infantum, read-out: IC50 ± SD, L. infantum promastigotes
Procedure: (§3) Promastigote forms of strains of L. infantum (MHOM/PT/1988/IMT151) and L. donovani (MHOM/BD/2006/BD14) were cultured at 24 °C ± 1 °C in M199 medium (Sigma) supplemented with 20% foetal bovine serum (FBS, Sigma) and 1% penicillin-streptomycin (Sigma). L. infantum strain belongs to IHMT, Portugal cryobank collection and the L. donovani strain was kindly provided by Dr. Katrin Kuhls, Technical University of Applied Sciences Wildau, Germany. Promastigotes used for the experiments had 7 to 12 in vitro passages in culture after isolation from mice, in order to keep virulence, and were used when the stationary phase of growth was reached (day 5 to 6), corresponding to the highest promastigotes density.
(§4) For the determination of the antileishmanial activity and IC50, promastigotes of L. infantum and L. donovani were plated in 96-well flat bottom culture plates at a concentration of 5 × 10^6 parasites/mL and incubated with six serial concentrations of each compound (Table 3), in four replicates, including the control drugs, amphotericin B, miltefosine and pentamidine. One untreated control (parasites with M199 medium plus 0.5% DMSO as vehicle solution) and one blank (M199 medium alone) were also plated out in quadruplicate. After 48 h incubation at 24 °C ± 1 °C, the inhibitory activity of the compounds was evaluated using the MTT, as previously described, with an additional 4 h incubation at 36 °C. Results were expressed in terms of percentage of parasite viability relative to nontreated control and IC50 was calculated fitting the data as a non-linear regression with variable slope using a dose-response inhibitory model, in the GraphPad Prism V 8.0 program. Each compound was tested in three independent assays. […]

[4] = tested on: L. donovani BD14 promastigotes; test: Promastigotes susceptibility assay (MTT), L. donovani; format: cell-based; conditions: Leishmania donovani, read-out: IC50 ± SD, L. donovani promastigotes
Procedure: as §3, §4

[5] = tested on: L. infantum IMT151 intracellular amastigotes; test: Intracellular amastigotes assay in J774A.1 macrophages, L. infantum; format: cell-based; conditions: Leishmania infantum, read-out: IC50 ± SD, L. infantum intracellular amastigotes
Procedure: (§5) The intracellular assay using the macrophage J774A.1 cell line was performed with the compounds that presented best SI on the promastigote’s susceptibility assay. J774A.1 cells were adjusted to 2.5 × 10^5 cells/mL in supplemented DMEM medium. 200 μL/well of the cell suspension was placed in 16 well Lab Tek culture glass slides (Nunc), and incubated at 37 °C ± 1 °C, 5% CO2, for 3 h, to enable the cells to adhere to the slides. After a washing step with DMEM to discard non-attached cells, the cells were infected with 2.5 × 10^6 cells/mL promastigotes in a 10:1 parasite-host cell proportion for 24 h. Compounds and control drugs were added in two replicates of six serial concentrations (Table 3). As negative control, macrophages were cultivated in medium and DMSO, as vehicle solution (0.5% v/v). Slides were incubated for 48 h at the same temperature. After a washing step with 1× PBS (Sigma), slides were fixed and stained, and the infection index was calculated according to [34] by counting the number of intracellular amastigotes per 100 macrophages, in treated and untreated cells. Two independent experiments were performed to determine the amastigotes IC50 of each compound, which was calculated by fitting the data as a non-linear regression with variable slope using a dose-response inhibitory model, in the GraphPad Prism V 8.0 program. SI was determined as described above.

[6] = tested on: L. donovani BD14 intracellular amastigotes; test: Intracellular amastigotes assay in J774A.1 macrophages, L. donovani; format: cell-based; conditions: Leishmania donovani, read-out: IC50 ± SD, L. donovani intracellular amastigotes
Procedure: as §5

[7] = tested on: L. infantum promastigotes; test: Promastigotes DNA fragmentation (agarose gel); format: cell-based, Leishmania infantum; conditions: IC50 concentrations, 24 h
Procedure: 2 mM H2O2 was used as DNA damage inductor and non-treated cells were used as control. After centrifugation (10 min, 800× g) DNA was extracted using a commercial extraction kit (High Template DNA Preparation Kit, Roche, Germany), according to the manufacturer’s instructions.

[8] = 48 h incubation, MTT, read-out: CC50 ± SD, J774A.1 Cell Line
[9] = 48 h incubation, MTT, read-out: CC50 ± SD, THP-1 Cell Line
[10] = J774A.1 macrophage cells, 48 h incubation, MTT, read-out: CC50 ± SD, J774A.1 Cell Line
[11] = PMA-differentiated THP-1 cells, 48 h incubation, MTT, read-out: CC50 ± SD, THP-1 Cell Line
[12] = J774.A1, 48 h incubation, J774A.1 host cells

Question: What does the source list for `O=C1CCC2(CC1)OOC1(O2)C2CC3CC(C2)CC1C3` (stereo not drawn) [LC50, Dispiro[cyclohexane-1,3'-[1,2,4]trioxolane-5',2''-tricyclo[3.3.1.13,7]decan]-4-one]?
Answer: CC50 at 48 h [1, 8]: 519 ± 140 µM; CC50 at 48 h [2, 9]: 713 ± 18.4 µM; IC50 ([3]; 48 h): 378.9 ± 2.8 µM; IC50 ([4]; 48 h): 354 ± 8.4 µM

Question: With `OCC1CCC2(CC1)OOC1(O2)C2CC3CC(C2)CC1C3` (stereo not drawn) [LC93] as the compound, how does the CC50 at 48 h [1, 10] read?
Answer: 12 ± 0.5 µM

Question: And the CC50 at 48 h [2, 11]?
Answer: 185 ± 16.1 µM

Question: What about the IC50 ([3]; 48 h incubation, MTT) of the same compound?
Answer: 435 ± 22.7 µM

Question: And the IC50 ([4]; 48 h incubation, MTT)?
Answer: 153 ± 22.4 µM

Question: For `O=S1(=O)N=C(OCC2CCC3(CC2)OOC2(O3)C3CC4CC(C3)CC2C4)c2ccccc21` (stereo not drawn) [LC129], which CC50 at 48 h [1, 10] is on record?
Answer: 323 ± 24.5 µM

Question: And the CC50 at 48 h [2, 11]?
Answer: 356 ± 31.4 µM

Question: And the IC50 ([3]; 48 h incubation, MTT)?
Answer: 266 ± 13.3 µM

Question: For `Cn1nnc(NCC2CCC3(CC2)OOC2(O3)C3CC4CC(C3)CC2C4)n1` (stereo not drawn) [LC131], which CC50 at 48 h [1, 10] is on record?
Answer: 34.1 ± 14.5 µM

Question: What about the CC50 at 48 h [2, 11] of the same compound?
Answer: 78.2 ± 14.1 µM

Question: What about the IC50 ([3]; 48 h incubation, MTT) of the same compound?
Answer: 321 ± 11.8 µM

Question: And the IC50 ([4]; 48 h incubation, MTT)?
Answer: 124 ± 19 µM

Question: Which CC50 at 48 h [1, 10] does the source give for `c1ccc(-n2nnnc2OCC2CCC3(CC2)OOC2(O3)C3CC4CC(C3)CC2C4)cc1` (stereo not drawn) [LC132] here?
Answer: 45.8 ± 19.9 µM

Question: And the CC50 at 48 h [2, 11]?
Answer: 99.8 ± 16.4 µM

Question: And the IC50 ([3]; 48 h incubation, MTT)?
Answer: 13 ± 1.7 µM

Question: And the IC50 ([4]; 48 h incubation, MTT)?
Answer: 14.3 ± 5.5 µM

Question: What about the IC50 [5, 12] of the same compound?
Answer: 13.2 ± 5.2 µM

Question: What about the IC50 [6, 12] of the same compound?
Answer: 9.4 ± 0.1 µM

Question: And the “genomic DNA fragmentation” value [7]?
Answer: did not produce DNA fragmentation

Question: Which results are given for `C1C2CC3CC1CC(C2)C31OOC2(CCC(Nc3nnn[nH]3)CC2)O1` (stereo not drawn) [LC136, N-1H-1,2,3,4-Tetraazol-5-yl-dispiro[cyclohexane-1,3'-[1,2,4]trioxolane-5',2''-tricyclo[3.3.1.13,7]decan]-4-ylamine]?
Answer: CC50 at 48 h [1, 10]: 113 ± 13.8 µM; CC50 at 48 h [2, 11]: 250 ± 4.1 µM; IC50 ([3]; 48 h incubation, MTT): 434 ± 6.4 µM; IC50 ([4]; 48 h incubation, MTT): 232 ± 28.4 µM

Question: For `C1CCC2(CC1)OOC1(OO2)C2CC3CC(C2)CC1C3` [LC137], which CC50 at 48 h [1, 8] is on record?
Answer: 443 ± 44 µM

Question: And the CC50 at 48 h [2, 9]?
Answer: 3569 ± 22 µM

Question: And the IC50 ([3]; 48 h)?
Answer: 137.1 ± 0.2 µM

Question: And the IC50 ([4]; 48 h)?
Answer: 143 ± 16.5 µM

Question: And the IC50 ([5]; J774.A1, 48 h)?
Answer: 168 ± 8.9 µM

Question: What about the IC50 ([6]; J774.A1, 48 h) of the same compound?
Answer: 88.3 ± 14.2 µM

Question: For `C1CC2(CCN1)OOC1(OO2)C2CC3CC(C2)CC1C3` [LC139], which CC50 at 48 h [1, 8] is on record?
Answer: 913 ± 70.7 µM

Question: And the CC50 at 48 h [2, 9]?
Answer: 115 ± 11.4 µM

Question: What about the IC50 ([3]; 48 h) of the same compound?
Answer: 472 ± 39.2 µM

Question: What about the IC50 ([4]; 48 h) of the same compound?
Answer: 507 ± 53.3 µM

Question: With `O=C1CCC2(CC1)OOC1(OO2)C2CC3CC(C2)CC1C3` [LC140] as the compound, how does the CC50 at 48 h [1, 10] read?
Answer: 678 ± 29.9 µM

Question: What about the CC50 at 48 h [2, 11] of the same compound?
Answer: 1400 ± 76 µM

Question: And the IC50 ([3]; 48 h incubation, MTT)?
Answer: 258 ± 6.4 µM

Question: What about the IC50 ([4]; 48 h incubation, MTT) of the same compound?
Answer: 460 ± 38.3 µM

Question: Which CC50 at 48 h [1, 10] does the source give for `OCC1CCC2(CC1)OOC1(OO2)C2CC3CC(C2)CC1C3` (stereo not drawn) [LC146] here?
Answer: 1465 ± 13 µM

Question: What about the CC50 at 48 h [2, 11] of the same compound?
Answer: 3220 ± 72 µM

Question: What about the IC50 ([3]; 48 h incubation, MTT) of the same compound?
Answer: 492 ± 22.7 µM

Question: What about the IC50 ([4]; 48 h incubation, MTT) of the same compound?
Answer: 793 ± 37.2 µM

Question: With `C1C2CC3CC1CC(C2)C31OOC2(CCC(Nc3nnn[nH]3)CC2)OO1` (stereo not drawn) [LC163] as the compound, how does the CC50 at 48 h [1, 10] read?
Answer: 474 ± 83.5 µM

Question: And the CC50 at 48 h [2, 11]?
Answer: 753 ± 90.3 µM

Question: And the IC50 ([3]; 48 h incubation, MTT)?
Answer: 190 ± 21.6 µM

Question: And the IC50 ([4]; 48 h incubation, MTT)?
Answer: 532 ± 105 µM

Question: What does the source list for `CCCCCCCCCCCCCCCCOP(=O)([O-])OCC[N+](C)(C)C` [Miltefosine, reference compound]?
Answer: CC50 at 48 h [1]: 94.4 ± 17.3 µM; CC50 at 48 h [2]: 100 ± 12.1 µM; IC50 ([3]; 48 h incubation, MTT): 149 ± 3.5 µM; IC50 ([4]; 48 h incubation, MTT): 24.2 ± 10 µM; IC50 [5, 12]: 16.8 ± 11.7 µM; IC50 [6, 12]: 13.3 ± 3 µM

Reference: paper PMC9024893, “1,2,4-Trioxolane and 1,2,4,5-Tetraoxane Endoperoxides against Old-World Leishmania Parasites: In Vitro Activity and Mode of Action” (Pharmaceuticals, 2022)
